From patent publication US6413967B1, “Inhibition of novel calcium entry pathway in electrically non-excitable cells acting as an anti-proliferative therapy” (The University of Virginia Patents Foundation, priority 1995, dated 2002)

Experiments:
Format in all cases: cell-based, human
[1] = system: IL-2 production by Jurkat cells; test: interleukin-2 production with CT-EV bioassay
Description: Jurkat cells were suspended at a concentration of 2×10^6 cells/ml in serum-free RPMI-1640 containing 100 U/ml penicillin and 100 μg/ml streptomycin. Cells were treated for 15 min with the appropriate compound to be tested prior to stimulation with 1 μg/ml PHA plus 10 nM PDB (calcium-independent) or with PHA alone (calcium dependent). The cells were then incubated for 2 h at 37° C. Following the 2 h stimulation period, the cells were washed twice with RPMI-1640 supplemented with 5% FBS with 5 min incubations between washes and were resuspended at 2×10^6 cells/ml. The cell suspensions were placed in wells of 24 well plates and were incubated at 37° C. for 24 h. At the end of the incubation, the suspensions were collected, the cells were pelleted and the supernatant was stored at 4° C. for later assay for IL-2 levels. […] Standard curves were generated by addition of known amounts of recombinant human IL-2 (BioWhittaker) to allow determination of IL-2 content in each sample. Plates were then incubated at 37° C. for 48 h. To determine proliferation of CTEV cells, 1 μCi of [^3H]-Thymidine (6.7 Ci/mmol; New England Nuclear) was added to each well for the final 16 hours of the assay and at 48 h the cells were harvested and incorporated ^3H was counted by liquid scintillation counting.

[2] = system: [Ca^2+]i in Jurkat T cells; test: receptor-stimulated Ca2+ influx in Jurkat T cells (anti-CD3 mAb OKT3); conditions: effect the same post- and pre- T cell receptor stimulation; 10 or 30 μM drug
Description: Initially, all drugs are screened using Jurkat T cells incubated with indo-1/AM as outlined below. In the event that there is an effect of the drug on the maximum [Ca^2+]i reached following treatment of the cells with the anti-CD3 mAb […], the drug is evaluated for any effects on the spectral characteristics of indo-1 as outlined in Haverstick and Gray, Mol. Biol. Cell (1993) 4:173. If there is an effect of the drug on the spectral characteristics of indo-1 , the drug is further examined for spectral effects on the combination of fura-red and fluo-3. If there is no effect of the drug on the fura-red/fluo-3 combination, the drug is examined for effects on the maximum [Ca^2+]i reached following OKT3 treatment of cells incubated with 5 μM fura-red and […] as outlined below.
Jurkat cells are incubated in RPMI-1640 plus 5% fbs in the presence of the acetoxymethyl ester of either indo-1 (1 μM) or the combination of fura-red (5 μM) with fluo-3 (1 μM) for one hour at 37° C. Cells are washed three times in buffer A [[…] 4-(2-hydroxyethyl)-1-piperazine ethanesulfonic acid (HEPES), pH 7.4, 3 MM KCl, 1 mM MgCl2, 1 mM CaCl2, 140 mM NaCl, 0.1% glucose] containing 1% fbs and suspended to a final concentration of 1×10^6/ml. Cells are then placed in the 37° C. jacketed cell holder of the SLM 8000C. Antigen receptor engagement is mimicked by the addition of the anti-CD3 monoclonal antibody OKT3 (Gray et al, J. Exp. Med. (1988) 167:1963; Gray et al, J. Immunol. 142:1631). The effect of drug added prior to receptor stimulation or at the plateau phase of Ca^2+ entry is determined as follows:
Prior drug: 10 or 30 μM drug @ 30 seconds, 1 μg/ml OKT3 at 90 seconds
Post drug: 1 μg/ml OKT3 at 30 second, 10 or 30 μM drug @ 120 seconds

[3] = system: VG Ca^2+ current in Jurkat cells; test: perforated patch clamp, voltage gated (VG) Ca2+ current; conditions: Homo sapiens, 10 μM NDGA
Description: All recordings were performed using the perforated patch method (Horn et al, J. Gen. Physiol. (1988) 92:145) of the gigaseal patch clamp technique (Hammil et al, Pflugers Arch (1981) 391:85) with microelectrodes of 5-10 megohm series resistance. In all solutions for voltage clamp, K^+ was replaced with Cs^+ to block outward K^+ currents (Fox et al, J. Physiol. (Lond.) (1987) 392:149). The bath solution contained (in mM): NaCl, 155; CsCl, 4.5; CaCl2, 2; MgCl2, 1; D-glucose, 5; HEPES, 10 (pH 7.4 with NaOH). The pipette solution contained (in mM): CsCl, 55; Cesium methanesulfonate, 70; CaCl2, 1; MgCl2, 7; HEPES, 10 (pH 7.3 with NaOH). Nystatin was made as a stock solution of 6 mg/100 μl DMSO, and 2 μl of the stock was added to 1 ml of the pipette solution for use. Both pipette and bath solutions were 290-300 mOsm. Experiments were performed on cells at room temperature using the Axopatch-1D patch clamp (Axon Instruments, Foster City, Calif.) after correction of junction potentials and leak subtraction. Records were low-pass filtered at 500 Hz, and the data were collected, stored and analyzed using the pClamp software program (Axon Instruments). For the non-voltage gated current traces, data is presented either as the tracing from a chart recorder or from the digital data in which the current was measured at 5 second intervals and plotted as individual points.

Jurkat T cells = test: Jurkat cell proliferation, tetrazolium dye; conditions: 48 hours
Description: The effect of various drugs on the proliferation of Jurkat T cells, MDA-468 human breast cancer cells and PC3 human prostate cancer cells was determined by incubating the cells with the indicated concentrations of drug for 48 hours. The number of viable cells remaining at the end of the incubation period was evaluated using the procedure outlined in Example 4.
Cells are plated in triplicate in a 96-well flat-bottomed plate (Jurkat: 5e4 cells/well in RPMI-1640 plus 5% fbs; MDA468: 2.5e4 per well in DMEM plus 5% fbs and 11 μg/ml insulin) in the absence (control) or presence of drug at 3, 10, 30, and 100 μM. An additional control of 100 μM drug in RPMI-1640 plus 5% fbs or DMEM plus 5% fbs and 11 μg/Ml insulin with no cells is included with each run to control for possible drug interactions with the dye. The plate is then placed in a 5% CO2 37° C. incubator for 44 to 48 hours. 20 μl of dye solution containing a tetrazolium dye (3-(4,5-dimethylthiazol-2-yl)-5-(3-carboxymethoxyphenyl)-2-(4-sulfophenyl)-2H-tetrazolium, Owen's reagent) plus coupling reagent (phenazine methosulfate) is added to each well, the plate is returned to the incubator, and the absorbance at 490 nm is read using an ELISA plate reader 3 to 4 h (Jurkat cells) or 2 to 3 h (MDA-468 cells) later. All data are presented as percent of control (no drug addition). With this protocol, it is possible to determine the effect of 5 drugs at 4 concentrations in a single 96-well plate as outlined below: […]

Q: For `CC(Cc1ccc(O)c(O)c1)C(C)Cc1ccc(O)c(O)c1` (centres unmarked) [NDGA, 4,4′-(2,3-dimethyl-1,4-butanediyl)bis[1,2-benzenediol]], which “effect on IL-2 secretion, Ca^2+-dependent stimulation” value [1] is on record?
A: suppressed

Q: What about the “effect on IL-2 secretion, stimulus not initially requiring extracellular Ca^2+” value [1] of the same molecule?
A: little effect

Q: What about the “T cell [Ca^2+]i” value [2] of the same molecule?
A: ↓

Q: And the inhibition at 10 µM [3]?
A: ~70%

Q: What about the “T cell PROLIF” value (Jurkat T cells) of the same molecule?
A: ↓
